Measurements taken from US20010039026A1, “Assay method” (priority 2000, published 2001).
Where two headings read alike, the source gives them in different places.

Columns and labels:
[1] = test system: CXCR4 dependent primary and lab-adapted HIV viruses; conditions: cited from earlier work
CCR5-tropic strains = conditions: cited from earlier work
CCCKR5 = biological target: T1, CCCKR5 (Homo sapiens, UniProt P51681); conditions: transfected CHO-K1 cells; cited from earlier work
T1 construct: expressed in transfected cells; host or cells: CHO-K1 (stably transfected)

primary HIV isolates = conditions: cited from earlier work
[2] = test system: primary, nonsyncytium-inducing (NSI) HIV-1 strains; conditions: primary NSI HIV-1 strains; cited from earlier work
[3] = test system: env-mediated cell-cell fusion; conditions: cited from earlier work
CCR5 [4] = biological target: T2, CCR5 (Homo sapiens, UniProt P51681); experiment: Dissociation constant of the CCR5/gp120 interaction, applicant's work with recombinant proteins; format: binding
T2 construct: antagonist of CCR5 function in monocytes; endogenous in cells; host or cells: monocytes

CCR5 [5] = biological target: T2, CCR5; conditions: described by others in model systems; read-out: dissociation constant (Kd) of the interaction of CCR5 with gp120; cited from earlier work

Compound	agonist activity at CCCKR5 (CCCKR5)	suppression of replication of primary HIV isolates (primary HIV isolates)	inhibition of infection of CD4(+) cells at the virus entry stage [2]	block of env-mediated cell-cell fusion [3]	also measured
c1cc(CN2CCCNCCNCCCNCC2)ccc1CN1CCCNCCNCCCNCC1 [AMD3100]					inhibition of infection of susceptible cultures [1]: inhibit infection
Cc1ccc(-c2ccc3c(c2)C=C(C(=O)Nc2ccc(C[N+](C)(C)C4CCOCC4)cc2)CCC3)cc1.[Cl-] [TAK 779]					block of entry of CCR5-tropic strains (CCR5-tropic strains): blocks entry
MIP-1-α: macrophage inflammatory protein, β-chemokine ligand of CCR5	most potent agonist	suppress replication	inhibit infection	block env-mediated cell-cell fusion	
RANTES: protein which is regulated upon activation and is normal T-cell expressed and secreted	active at physiologic concentrations	suppress replication	inhibit infection	block env-mediated cell-cell fusion	
SDF-1: chemokine shown to suppress replication of primary HIV isolates		suppress replication			
gp120: envelope protein of HIV that is required for viral entry into the target cells					Kd (CCR5 [4]): 100 to 1000 nM; Kd (CCR5 [5]): ~1 nM
